This is an account of results in article PMC4466645 (Oncotarget, 2015).

Usually IC50 stands for the concentration needed to halve the response being measured.

Details of data set [1]: method as in PMID 23693152. As to conditions: cited from earlier work.
On the set-up of data set [2]: method as in PMID 23693152. To be noted: cited from earlier work. This is another data set of the same source.
Another data set has as its target Flt3 (Homo sapiens, UniProt P36888). Description: Microfluidic capillary electrophoresis (MCE) enzymatic assay, Flt3. Format: biochemical. As to conditions: ATP at Km.
In a further data set the target is Mer (Homo sapiens, UniProt Q12866). Description: Microfluidic capillary electrophoresis (MCE) enzymatic assay, Mer. Format: biochemical. As to conditions: ATP at Km.
For data set [3], the system named is AML cell lines expressing Mer or Flt3 internal tandem duplication (ITD). Description: Apoptosis by flow cytometry, AML cell lines expressing Mer or Flt3-ITD (all lines together). As to conditions: 72 hours, Mer-expressing or Flt3-ITD cell lines. For orientation: In flow cytometry, cells or beads pass a laser one at a time.
Experimental: To assess apoptosis, AML cell lines were cultured at 3 × 10^5 cells, and 1 × 10^6 AML patient blasts were co-cultured with 3.5 × 10^5 HS27 cells per condition in 24 well plates, and treated for 72 hours. […] Flow cytometry data were analyzed using Modfit Cell Cycle Analysis software (Verity Software House). In replating assays, cells were similarly plated and treated, then harvested cells were washed twice, and 1.5 × 10^4 viable cells/ml were cultured in cRPMI for six days. Six days after replating, viable myeloblast count was determined by trypan blue exclusion using a Cedex XS Analyzer (Roche).

Sequence of Flt3 (P36888 27-993): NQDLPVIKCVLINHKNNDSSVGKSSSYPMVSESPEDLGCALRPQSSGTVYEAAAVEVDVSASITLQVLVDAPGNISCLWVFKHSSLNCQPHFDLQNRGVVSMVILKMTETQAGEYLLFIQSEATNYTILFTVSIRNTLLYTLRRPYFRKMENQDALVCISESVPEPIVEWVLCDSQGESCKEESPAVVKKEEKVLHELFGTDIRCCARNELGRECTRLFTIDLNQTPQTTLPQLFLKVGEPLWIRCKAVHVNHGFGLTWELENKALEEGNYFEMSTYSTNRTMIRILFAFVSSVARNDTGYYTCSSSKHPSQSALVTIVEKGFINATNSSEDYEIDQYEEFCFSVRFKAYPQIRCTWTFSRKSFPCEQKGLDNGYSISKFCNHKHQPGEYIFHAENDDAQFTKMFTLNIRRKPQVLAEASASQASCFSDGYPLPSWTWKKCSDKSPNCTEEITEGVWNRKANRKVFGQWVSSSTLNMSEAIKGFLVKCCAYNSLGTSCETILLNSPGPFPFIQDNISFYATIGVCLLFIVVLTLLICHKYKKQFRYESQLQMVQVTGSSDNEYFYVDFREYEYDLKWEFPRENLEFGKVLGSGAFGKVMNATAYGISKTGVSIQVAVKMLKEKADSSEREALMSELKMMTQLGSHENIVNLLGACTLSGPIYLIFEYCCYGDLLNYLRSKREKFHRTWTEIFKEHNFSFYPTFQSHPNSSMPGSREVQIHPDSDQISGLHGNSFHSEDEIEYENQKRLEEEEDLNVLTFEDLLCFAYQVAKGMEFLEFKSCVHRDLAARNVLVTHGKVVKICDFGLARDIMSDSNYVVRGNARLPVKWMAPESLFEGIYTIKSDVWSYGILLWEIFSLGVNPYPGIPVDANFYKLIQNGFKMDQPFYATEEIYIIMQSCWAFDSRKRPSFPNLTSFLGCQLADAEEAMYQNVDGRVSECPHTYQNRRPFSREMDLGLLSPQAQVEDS
Sequence of Mer (Q12866 21-999): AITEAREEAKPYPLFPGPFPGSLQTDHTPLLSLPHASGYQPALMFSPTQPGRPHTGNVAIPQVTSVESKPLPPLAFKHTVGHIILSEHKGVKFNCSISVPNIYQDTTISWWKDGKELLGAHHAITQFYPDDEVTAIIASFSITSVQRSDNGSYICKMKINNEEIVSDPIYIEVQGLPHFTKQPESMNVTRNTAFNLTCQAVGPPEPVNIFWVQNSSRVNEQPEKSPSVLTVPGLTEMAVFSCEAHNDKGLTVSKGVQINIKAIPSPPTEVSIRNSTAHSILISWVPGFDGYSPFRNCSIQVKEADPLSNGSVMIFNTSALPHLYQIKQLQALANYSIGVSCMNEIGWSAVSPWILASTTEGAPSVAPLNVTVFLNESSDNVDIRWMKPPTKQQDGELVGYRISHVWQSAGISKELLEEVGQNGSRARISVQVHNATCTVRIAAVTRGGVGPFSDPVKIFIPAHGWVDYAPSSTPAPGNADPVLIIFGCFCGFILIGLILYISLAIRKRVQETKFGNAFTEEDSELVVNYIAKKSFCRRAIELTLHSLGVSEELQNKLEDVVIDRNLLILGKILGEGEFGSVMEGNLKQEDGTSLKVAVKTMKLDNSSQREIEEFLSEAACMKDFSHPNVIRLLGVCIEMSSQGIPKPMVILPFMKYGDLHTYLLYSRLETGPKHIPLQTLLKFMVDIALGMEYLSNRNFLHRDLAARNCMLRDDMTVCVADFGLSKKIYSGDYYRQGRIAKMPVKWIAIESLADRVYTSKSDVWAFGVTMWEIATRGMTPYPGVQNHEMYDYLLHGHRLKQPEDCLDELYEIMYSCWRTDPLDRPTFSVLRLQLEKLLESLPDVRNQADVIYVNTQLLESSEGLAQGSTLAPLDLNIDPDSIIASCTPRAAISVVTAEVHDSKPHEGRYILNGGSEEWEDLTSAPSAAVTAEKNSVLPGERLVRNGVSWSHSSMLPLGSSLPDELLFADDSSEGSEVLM

Turning to `CCCCNc1ncc2c(-c3ccc(S(=O)(=O)N4CCOCC4)cc3)nn(C3CCC(O)CC3)c2n1` (centres unmarked) [UNC1062], the “Solubility (in words)” value in data set [1] is recorded as “low solubility”. In addition, in data set [2], the “In vivo pharmacokinetic properties (in words)” value was “poor in vivo pharmacokinetic properties”.

On to `CCCCN(C)c1ncc2c(-c3ccc(F)cc3)nn(C[C@H]3CC[C@H](N)CC3)c2n1` [UNC1653], for which the IC50 came out at 220 nM on Flt3 and 560 nM against Mer. The “Induction of apoptosis (in words)” value in data set [3] is “did not induce apoptosis”.
